{"source": "patent US10596169B2", "about": "“Cancer treatment with combination of plinabulin and taxane” (BeyondSpring Inc., priority 2013, dated 2020)", "key": {"[1]": {"assay": "Example 3: clinical study, safety (docetaxel dose reduction, neutropenia rate, G-CSF use), Arm DN vs Arm D", "assay_type": "in vivo, human (NSCLC patients)", "description": "The investor applied the optimum plinabulin and docetaxel combination treatment schedule derived from MV522 animal studies in NSCLC patients. Patients received therapy on Day 1 and Day 8 in 3-week cycles. Therapy on Day 1 consisted of 75 mg/m^2 docetaxel administered via intravenous infusion (IV) over 1 hour, followed 2 hours later (from the time the docetaxel infusion begins) by 30 mg/m^2 plinabulin administered via intravenous infusion (IV) over 30 minutes. Therapy on Day 8 consisted of 20 mg/m^2 or 30 mg/m^2 plinabulin administered via intravenous infusion (IV) over 30 minutes.\nThis was an open-label study in patients with advanced NSCLC that had progressed after treatment with at least 1 chemotherapy regimen. Patients were randomized to receive either docetaxel plus plinabulin (DN) or docetaxel alone (75 mg/m^2) (D). 2 dosing cohorts were investigated: • 1) 30 mg/m^2 dosing cohort: Approximately 110 patients were to be randomized (1:1) to receive either docetaxel plus plinabulin at 30 mg/m^2 (DN 30 mg/m^2 arm) or docetaxel alone (D arm); • 2) 20 mg/m^2 dosing cohort: Approximately 57 patients were to be randomized (2:1) to receive either docetaxel plus plinabulin at 20 mg/m^2 (DN 20 mg/m^2 arm) or docetaxel (D arm) alone.\nPatients received therapy on Day 1 and Day 8 in 3-week cycles.\nTherapy on Day 1 consisted of 75 mg/m^2 docetaxel administered via intravenous infusion (IV) over 1 hour, followed 2 hours later (from the time the docetaxel infusion began) by placebo (Arm D) or 30 mg/m^2 or 20 mg/m^2 plinabulin (Arm DN) DN administered via intravenous infusion (IV) over 30 minutes. Oral dexamethasone (16 mg) was given the day prior to, the day of and the day following docetaxel infusion (Day 1). Therapy on Day 8 consisted of placebo (Arm D) or 30 mg/m^2 or 20 mg/m^2 plinabulin (Arm DN) administered via intravenous infusion (IV) over 30 minutes.\nIn patients experiencing drug related Grade >2 treatment emergent adverse events (except alopecia, anorexia, and fatigue) according to the CTCAE (v3.0) treatment may be delayed until the adverse event has recovered to <Grade 1.\nThe initial dose of plinabulin was 30 mg/m^2 or 20 mg/m^2. Dose adjustments depended on observed adverse events. Volume of administration varied based on assigned dose and patient body surface area. The clinical formulation were supplied as a concentrated solution in 40% Solutol® HS-15/60% propylene glycol in amber vials containing 80 mg of drug in 20 mL (4 mg/mL) and were stored at room temperature. Each vial was designated for single use. The correct volume of drug (at a concentration of 4 mg/mL in the vial) was diluted in dextrose 5% in water (D5W) at a dilution of 1:20 and administered IV peripherally or centrally. Infusion time may be increased as clinically indicated at the direction of the Sponsor. Plinabulin and placebo must be protected from light at all times including storage, dilution and administration. Plinabulin and placebo should be administered within 6 hours of dilution.\nThe initial dose of docetaxel was 75 mg/m^2. Dose adjustments depended on observed adverse events.\nComparisons were made of efficacy endpoints between Arm D and Arm DN. The primary efficacy endpoint is overall survival. Secondary endpoints include response rate, duration of response, quality of life, neutropenia rate and G-CSF usage. […]\nAll patients were evaluated for safety analysis if they received at least one dose of study drug. […]"}, "NSCLC": {"system": "NSCLC", "conditions": "wide type NSCLC patients (stage IIIb/IV, second line), docetaxel 75 mg/m^2; cited from earlier work"}}}
{"compound": "CC(=O)O[C@@]12CO[C@@H]1C[C@H](O)[C@@]1(C)C(=O)[C@H](O)C3=C(C)[C@@H](OC(=O)[C@H](O)[C@@H](NC(=O)OC(C)(C)C)c4ccccc4)C[C@@](O)([C@@H](OC(=O)c4ccccc4)[C@H]21)C3(C)C", "note": "[Docetaxel, docetaxel]", "values": [{"measurement": "Patients requiring docetaxel dose reductions", "setting": "[1]; 20 mg/m^2 plinabulin cohort and companion D arm", "result": 22.2, "unit": "%"}, {"measurement": "Patients with docetaxel dose decrease from initial 75 mg/m^2", "setting": "[1]; 30 mg/m^2 plinabulin cohort and matched docetaxel alone arm", "result": 18.2, "unit": "%"}, {"measurement": "Incidence of neutropenia", "setting": "[1]; DN 20 mg/m^2 arm vs companion D arm", "result": 22.2, "unit": "%"}, {"measurement": "Incidence of neutropenia", "setting": "[1]; DN 30 mg/m^2 arm vs companion D arm", "result": 36.4, "unit": "%"}, {"measurement": "Incidence of ≥Grade 3 neutropenia", "setting": "[1]; pooled D arm (n=73)", "result": 27.4, "unit": "%"}, {"measurement": "OS", "setting": "NSCLC", "result": 8.2, "unit": "months"}]}
